In brackets after ≈: the same amount, converted by molar mass.
Experiments:
[1] = system: gram positive and gram negative bacteria; experiment: Suspension test for bactericidal activity (modified EN 1040), residual cell count; assay type: cell-based
Method: The bactericidal activity of the compounds of the present invention is measured in a suspension test according to trivial modifications of the European Standard method EN 1040. Substances listed in Table 1 are tested against gram positive and gram negative bacteria, yeasts and moulds. A selection of the results is shown in the following. The pyrano pyranone derivatives are dissolved in ethanol or DMSO resulting in 1% stock solutions of the compounds. The cell densities of the bacterial suspensions used as inoculums for the suspension test are as follows (cfu=colony forming units): [table] For the suspension tests, an appropriate concentration of the test compound is mixed with a bacterial suspension resulting in a final cell count in the mixture of about 10^5 cfu/ml. These test mixtures are incubated at room temperature (22° C.+/−2° C.) and aliquots of 1 ml test mixture containing the test bacteria were taken after set contact times for determination of the residual cell count of test bacteria. For inactivation of the antimicrobial compounds, the 1 ml aliquots are diluted in 1:10 steps in a solution with 10% Tween, 3% lecithin, 0.1% histidine and 0.5% sodium thiosulfate.

[2] = system: Candida albicans ATCC 10231; experiment: Suspension test for fungicidal activity (modified EN 1275), residual cell count; assay type: cell-based; details: C. albicans
Method: The fungicidal activity of the compounds of the present invention is measured in a suspension test according to trivial modifications of the European Standard method EN 1275. The pyrano pyranone derivatives are dissolved in ethanol or DMSO resulting in 1% stock solutions of the compounds. The cell density of Candida albicans ATCC 10231 used as inoculum for the suspension test was 2.4×10^8 cfu/ml and of A. niger ATCC 6275 3.8×10^8 cfu/ml. For the suspension tests, an appropriate concentration of the test compound is mixed with a Candida albicans suspension resulting in a final cell count of about 10^5 cfu/ml. These test mixtures are incubated at room temperature (22° C.+/−2° C.) and aliquots of 1 ml test mixture containing Candida albicans were taken after set contact times for determination of the residual cell count. For inactivation of the antimicrobial compounds, the 1 ml aliquots are diluted in 1:10 steps in a solution with 10% Tween, 3% lecithin, 0.1% histidine and 0.5% sodium thiosulfate.

[3] = system: A. niger ATCC 6275; experiment: as above; assay type: cell-based, Aspergillus niger
Method: The fungicidal activity of the compounds of the present invention is measured in a suspension test according to trivial modifications of the European Standard method EN 1275. The pyrano pyranone derivatives are dissolved in ethanol or DMSO resulting in 1% stock solutions of the compounds. The cell density of Candida albicans ATCC 10231 used as inoculum for the suspension test was 2.4×10^8 cfu/ml and of A. niger ATCC 6275 3.8×10^8 cfu/ml. Aliquots of 1 ml were taken of the A. niger containing test mixtures after set contact times for determination of the residual cell count. For inactivation of the antimicrobial compounds, the 1 ml aliquots were diluted in 1:10 steps in a solution of the following composition: [table]

[4] = system: Malassezia furfur DSM 6171, CIP 1636-86; experiment: Agar incorporation test, minimum inhibitory concentration (MIC); assay type: cell-based; details: M. fufur
Method: For determination of the microbistatic activity, the Minimum Inhibitory Concentrations (MIC) of the test compounds is determined.
The pyrano pyranone derivatives are also tested in an agar incorporation test in order to determine their minimum inhibitory concentrations (MIC) against various tests organisms. A selection of the results is shown in the following.
For this compound, a 1% stock solutions i9s prepared in ethanol.
A dilution series of the test compound in 15 ml still liquid agar media are prepared with 400 ppm, 200 ppm, 100 ppm, 50 ppm, 25 ppm, 12.5 ppm, 6.25 ppm, 3.125 ppm and 1.56 pmm of active.
The media used for the agar plates are Müller-Hinton (Merck) for the determination of the MIC against bacteria and C. albicans and Sabouraud Agar (Merck) for the determination of the MIC against A. niger. For the determination of the MIC against Malassezia furfur DSM 6171, CIP 1636-86 Medium 472 (DSMZ—Deutsche Sammlung von Mikroorganismen and Zellkulturen GmbH) was used.
After solidification of the agar, all agar plates containing the test compounds were stored over night in the laboratory (at about 22° C.) for drying. […]
10 μl of these cell dilutions are then dotted onto the surface of the agar media. […] (for Aspergillus niger), 4 days at 30° C. and then the highest dilution of the test compound at which no more growth was observed (corresponds to the MIC) is determined. […]

[5] = P. aeruginosa, contact time 24 h

SMILES | log reduction after set contact time ([1]; E. coli, contact time 24 h) | residual cell count (cfu/ml) after set contact time ([1]; E. coli, contact time 24 h) | log reduction after set contact time [1, 5] | residual cell count (cfu/ml) after set contact time [1, 5] [cfu/ml] | log reduction after set contact time ([1]; S. aureus, contact time 24 h) | residual cell count (cfu/ml) after set contact time ([1]; S. aureus, contact time 24 h) [cfu/ml] | log reduction after set contact time ([2]; contact time 24 h) | residual cell count (cfu/ml) after set contact time ([2]; contact time 24 h) [cfu/ml] | log reduction after set contact time ([3]; contact time 24 h) | residual cell count (cfu/ml) after set contact time ([3]; contact time 24 h) | log reduction after set contact time ([3]; contact time 7 d) | residual cell count (cfu/ml) after set contact time ([3]; contact time 7 d) | log reduction after set contact time ([1]; S. aureus, contact time 7 d) | residual cell count (cfu/ml) after set contact time ([1]; S. aureus, contact time 7 d) [cfu/ml] | log reduction after set contact time ([2]; contact time 7 d) | residual cell count (cfu/ml) after set contact time ([2]; contact time 7 d) [cfu/ml] | MIC [4] [µg/mL]
CC1=Cc2c(cc(C)oc2=O)OC1C (stereo not shown) [P-1] | >3 | <100 cfu/ml | >3 | <100 | >3 | <100 | >3 | <100 | 2.2 | 1.2 × 10^3 cfu/ml | – | – | – | – | – | – | –
CC(C)=CCCC1(C)C=Cc2c(cc(C)oc2=O)O1 (stereo not shown) [P-3] | >3 | <100 cfu/ml | >3 | <100 | >3 | <100 | >3 | <100 | – | – | 2.2 | 1.2 × 10^3 cfu/ml | – | – | – | – | –
Cc1cc2c(c(=O)o1)C=CC(C)(C)O2 [P-4] | >3 | <100 cfu/ml | >3 | <100 | >3 | <100 | >3 | <100 | >3 | <10 cfu/ml | – | – | – | – | – | – | –
CC1=Cc2c(cc(C)oc2=O)OC1c1ccco1 (stereo not shown) [P-5] | >3 | 4.0 × 10^2 cfu/ml | >3 | <100 | – | – | – | – | – | – | – | – | >3 | <100 | >3 | <100 | 50 (≈ 205 µM)
CCCC1C=Cc2c(cc(C)oc2=O)O1 (stereo not shown) [P-6] | >3 | <100 cfu/ml | >3 | <100 | >3 | <100 | >3 | <100 | >3 | <10 cfu/ml | – | – | – | – | – | – | –

Source: patent US20110224170A1, “Pyranopyranone derivatives as antimicrobial agents” (BASF SE, priority 2010, published 2011)
